Consider 1 molecule from patent US20230255864A1, “NOVEL COMPOSITIONS COMBINING HEMP DERIVATIVES AND AT LEAST ONE PEPTIDE AND USE THEREOF” (FRANCE COSMEPHYL-LAB, priority 2020, published 2023).

The structures appear in SMILES notation.

Test [1] deals with RAW 267.4 murine macrophages. In words: Cell viability of murine macrophages (WST-1 mitochondrial respiration), in parallel with NO release. To be noted: Mus musculus, RAW267.4; non-linear regression of 3 series of experiments; positive control. It is filed as cell-based. Here is the method:
(§1) MURINS RAW 267.4 Macrophage cell line (Sigma-Aldrich, No. P6110401, Lot. 091006), low number of passages (less than 50).
(§2) Complete medium: DMEM with stabilized L-glutamine (Dulbecco's Minimum Essential Medium, PAN BIOTECH. Lot 974251) supplemented with Penicillin 100 IU/ml and streptomycin 100 μg/m1 (PAN BIOTECH, Lot 225614), and 10% inactivated calf serum (PAN BIOTECH, Lot P460518), pH 7.2, freshly prepared, stored for less than 3 weeks.
(§3) Cannabidiol (CBD) is diluted in DMSO (10 mg/mL storage solution), and subjected to an ultrasonic bath for 20 minutes. The Neutrazen™ solution is diluted in PBS (Phosphate buffer saline, Sigma-Aldrich).
(§4) RAW 267.4 murine macrophages were inoculated into 48-well tissue culture plates at a concentration of 1.10^5 cells/ml (200 μl/well) and incubated for 24 hours at 37° C. (5% CO2).
(§5) At the end of the incubation period, the culture medium was replaced with 200 μl of medium containing the appropriate concentrations of the material to be tested, and the cells were incubated at 37° C. (5% CO2) for one hour.
(§6) At the end of the incubation period, pro-inflammatory E. coli LPS was added to the cell cultures (1 μg/ml. Then the cells were incubated at 37° C. (5% CO2) for 24 hours.
In parallel with the evaluation of the release of NO, the cell viability was measured to validate the tests. Vital Stain Reagent WST-1 was used to measure cellular mitochondrial respiration. For this, the culture medium was decanted and 100 μl of WST-1 reagent ( 1/10 dilution) were added to each well. After an incubation period of 30 min at 37° C. (5% CO2), the Optical Density (OD) of each well was read at a wavelength of 450 nm by an Infinite M200 Pro fluorescence-luminescence reader (TECAN). The results obtained for the wells treated with the test material were compared with those of the untreated control wells (DMSO, 100% viability) and converted into percentage values.
Inhibition of NO release and inhibition of cell viability were expressed as a percentage relative to the negative controls: […]
(§7) The concentrations of test material causing a 50% decrease in NO release (IC50 (NO release)) and a 50% decrease in cell viability (IC50 (cell viability)) respectively were calculated using TableCurve software Version 2.0.
Analysis of the anti-inflammatory activity and of the cell viability of the cannabidiol/palmitoyl tripeptide-8 (Neutrazen™) association in a mixture by isobologram analysis. For each concentration of Neutrazen™ (0.01, 0.025, 0.05 and 0.1%), different concentrations of CBD are tested (0.01, 0.025, 0.05, 0.1, 0.25, 0.5, 1 and 2.5%) to determine both the production of NO and cell viability.
The results obtained with the different mixtures of CBD and Neutrazen™ made it possible to calculate the pairs of concentrations corresponding to a 50% reduction in the production of NO and a 50% reduction in cell viability.

Test [2] deals with murine macrophages (RAW 267.4 cell line) stimulated with LPS from E. coli. In words: In vitro anti-inflammatory test: inhibition of NO production in LPS-stimulated murine macrophages (Griess reaction). It is filed as cell-based.
Text: Low-grade inflammation is strongly implicated in degenerative processes in human skin such as photoaging and atopy. The reduction of low-intensity inflammatory reactions by topical products may be necessary in the event of cutaneous aggression, to obtain optimal healing and restore the physiological balance of human skin. In order to identify new anti-inflammatory candidates, an in vitro anti-inflammatory test was developed with a murine cell line: the murine macrophage test RAW 267.4. This test was used to monitor the inhibitory effects of chemical compounds or natural extracts on the low-intensity inflammatory cascade leading to overproduction of nitrogen oxide (NO) in the endothelial wall of blood vessels.
The study was carried out to evaluate the ability of cannabidiol, palmitoyl tripeptide-8 (active ingredient in Neutrazen™), and their mixture to inhibit the pro-inflammatory cascade leading to the production of NO in murine macrophages stimulated by liposaccharides (LPS).
The in vitro anti-inflammatory test is based on the ability of murine macrophages to generate a strong inflammatory response when stimulated by antigens such as LPS. Immobilized murine macrophages (RAW 267.4 cell line) are stimulated with LPS from E. coli and exposed for 24 hours. At the end of the incubation period, the production of NO is evaluated indirectly by measuring the accumulation of nitrite/nitrate, stable final products of the oxidation of NO, in the culture medium using a method spectrophotometric based on the Griess reaction.
as §1, §2, §3
The negative control: DMSO 1% The positive control: Dexamethasone (Sigma-Aldrich) 1-5-10-50-100 μM.
as §4, §5, §6
The amount of NO released was measured in the culture supernatant by the Griess reaction. 100 μl of the supernatants were transferred into the wells of a 96-well tissue culture plate, and modified Griess reagent (SIGMA-ALDRICH) were added to each well. After a period of 15 min at room temperature, the Optical Density (OD) of each well was read at a wavelength of 540 nm by an Infinite M200 Pro fluorescence-luminescence reader (TECAN).
as §7
The anti-inflammatory ratio corresponds to the ratio between anti-inflammatory activity and toxicity. It is expressed as follows: […]
Analysis of the anti-inflammatory activity and of the cell viability of the cannabidiol/palmitoyl tripeptide-8 (Neutrazen™) association in a mixture by isobologram analysis.

Take `C[C@@H]1C[C@H]2[C@@H]3CCC4=CC(=O)C=C[C@]4(C)[C@@]3(F)[C@@H](O)C[C@]2(C)[C@@]1(O)C(=O)CO` [Dexamethasone]: the concentration for half-maximal inhibition (IC50) (commonly the concentration that inhibits the measured activity by half) in test [1] was found to be 193 ± 4.25 µM; in test [2] (Mus musculus, RAW267.4, non-linear regression of 3 series of experiments, positive control, read-out: IC50-NO release) it was 2.98 µM. Further, in test [2] (ratio between anti-inflammatory activity and toxicity (IC50 NO release and IC50 cell viability)), the Anti-inflammatory ratio is 64.65.
